Experimental data as given in patent US10626349B2, “Cleavable surfactants” (PROMEGA CORPORATION, priority 2007, dated 2020).
“Also recorded” adds a separate entry of the source.

Experiments:
[1] = Acid and thermal degradation of the surfactant; details: for time to degradation in 0.5% TFA: 0.1% solution for 3220 and 3266
[2] = molecular target: T1, Ovalbumin (albumin from chicken egg white) treated with PNGase F (Gallus gallus, UniProt P01012); assay: Deglycosylation of ovalbumin with PNGase F (SDS-PAGE); type: biochemical; details: 0.025% surfactant, 1 hour and 20 minutes at 37° C.
T1 construct: Ovalbumin (albumin from chicken egg white); purchased Sigma
T1 sequence (P01012 2-386 limits assumed): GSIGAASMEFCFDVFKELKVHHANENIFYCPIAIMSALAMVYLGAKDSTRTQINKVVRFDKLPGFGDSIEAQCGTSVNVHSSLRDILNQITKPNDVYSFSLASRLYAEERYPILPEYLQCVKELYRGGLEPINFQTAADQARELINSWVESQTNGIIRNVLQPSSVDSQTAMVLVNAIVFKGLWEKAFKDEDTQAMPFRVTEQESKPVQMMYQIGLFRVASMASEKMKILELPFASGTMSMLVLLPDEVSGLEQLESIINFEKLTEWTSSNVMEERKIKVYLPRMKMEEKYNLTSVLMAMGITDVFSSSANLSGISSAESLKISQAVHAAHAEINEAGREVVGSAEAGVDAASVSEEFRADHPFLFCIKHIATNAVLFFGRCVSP
Description: Surfactants described herein were evaluated as replacements for SDS in deglycolsylation protocols. Ovalbumin (albumin from chicken egg white) was selected as a model protein. Ovalbumin is a 44.3 kD glycoprotein with 1.4 kD carbohydrate units linked to the protein. […] Surfactant compound 3266 is acid-labile and it can be easily degraded, allowing for analysis of the protein and carbohydrate using mass spectrometric analysis.
Ovalbumin (Sigma) (45 μg) was dissolved in 0.025% 3266/5 mM DTT/25 mM ammonium bicarbonate (pH ˜8) and incubated at 95° C. for 5 minutes. In the control reaction, 3266 was replaced with SDS. Deglycosylation was initiated by adding 1.5μ units PNGase F (Sigma). After 1 hour and 20 minutes of incubation at 37° C., the reactions were terminated by incubation at 95° C. for 5 minutes and an aliquot from each reaction was resolved with SDS-PAGE. […] The analyses indicate that compound 3266 is equivalent to the deglycosylation enhancement found using SDS, while eliminating the deleterious effects of SDS in concomitant spectrometric and chromatographic analysis.

[3] = Solubility of the surfactant; details: for solubility (concentration dissolved to): in 50 mM ammonium bicarbonate; for solubility in aqueous solutions (concentration dissolved to): aqueous solution
[4] = Hydrolytic stability in 50 mM ammonium bicarbonate (reverse-phase HPLC); type: physicochemical; design: key: >>: compound 100% stable over course of experiment
Description: Hydrolytic stability was measured by monitoring the change in retention time of the intact surfactant by reverse-phase HPLC. The ½-life is defined as the time required to reach 50% degradation.

[5] = molecular target: T2, Myoglobin from horse heart digested with trypsin (Equus caballus, UniProt P68082); assay: Myoglobin/Trypsin digest, HPLC peak area versus RapiGest control; type: biochemical; details: 0.01% surfactant, trypsin 50:1, 20 minutes at 37° C.; ratio to RapiGest control, >1 = more digestion
T2 construct: Myoglobin from horse heart; from tissue; host or cells: horse heart
Description: Myoglobin from horse heart (typically 25 μs) was digested with trypsin (Promega) at a 50:1 ratio in a volume of 125 μL (typical) of 50 mM Ammonium bicarbonate for 20 minutes at 37° C. with 0.01% RapiGest™ surfactant or 0.01% of the indicated compound of the invention (upper and lower chromatograms, respectively). TFA was added to 0.5-2% and the mixtures were incubated at 37° C. or 65° C. for 20 or 30 minutes. Degraded surfactant was removed by centrifugation at 14,000×g for 5 minutes. HPLC analysis was performed on a 25-50 μL reaction sample using an HP1050 LC system with an Agilent Sorbax SB-C18 column (3.0×100 mm, 3.5 micron) and a gradient of 0.1% TFA (97.5% initial) and Acetonitrile, 0.01% TFA (55% final condition followed by a 100% wash step) and a flow rate of 0.75 mL/min. Peptides were detected at 214 and 280 nm.
(§1) For each compound numbered below in Example 12, the rate of enhanced digestion was determined from the ratio of the surfactant peak area (surfactant # Pk. Area) to the Rapigest™ surfactant peak area (RG Pk area). Peak area was determined as the sum of all peaks integrated from 8-22 minutes.

[6] = molecular target: T3, beta subunit of mouse ATP synthase (Mus musculus, UniProt P56480); assay: In-gel trypsin digestion of 56 kD band of mouse heart membrane protein, mass spectrometry; type: biochemical
T3 construct: Total membrane protein from mouse heart was resolved in SDS-polyacrylamide gel; from tissue; host or cells: mouse heart, total membrane protein, 56 kD SDS-PAGE band
Description: 13. Rehydrate for 5 minutes in 20 μL 12 ng/μL Trypsin Gold (in 0.025% surfactant A/50 mM […] AmBic). Overlay with 30 μL of 0.01% surfactant A/50 mM AmBic to cover gel pieces. Incubate 1 hour at 50° C.
Total membrane protein from mouse heart was resolved in SDS-polyacrylamide gel and a single protein band was digested with a conventional digestion protocol (control) and separately with a compound 3211-assisted protocol.
A band of the protein with an approximate MW of 56 kD was excised and digested with trypsin. The digested samples were analyzed by mass spectrometry. […] Asterisks indicate identified peptides for beta subunit of mouse ATP synthase (the major protein in 56 kD band).

[7] = Stability and degradation profile of surfactant 3211 solutions; type: physicochemical
Description: FIG. 1 illustrates the degradation profile of a 0.025% solution of surfactant 3211 at 40° C., according to one embodiment.
For example, degradation of surfactant compound 3211 after protein digestion is not required because the surfactant degrades during the digestion process. The stability of a 1% solution of 3211 (10% degradation) is 8 hours at 23° C., 12 days at 4° C., and an estimated >3 years at −20° C. However, the degradation rate of surfactant 3211 increases in a typical protein digestion protocol. […] Less than about 5% of intact surfactant remains after only 2 hours.

[8] = molecular target: Horse myoglobin digested with trypsin (Equus caballus, UniProt P68082); assay: One hour digestion of myoglobin with trypsin (HPLC); type: biochemical; details: for digestion of myoglobin in one hour (in words): trypsin, 3116: 0.01%, 50:1, one hour at 37° C.
Description: For example, digestion of myoglobin using standard protocol requires overnight digestion. […] Horse myoglobin was digested with trypsin at a 50:1 ratio for one hour at 37° C., alone and separately in the presence of 0.01% compound 3116.
The peaks in FIG. 3A and FIG. 3B indicate peptides or partial digestion fragments.

[9] = molecular target: T4, Bacteriorhodopsin digested with chymotrypsin (Halobacterium salinarum, UniProt P02945); assay: Bacteriorhodopsin/Chymotrypsin digest, HPLC peak area versus RapiGest control; type: biochemical; details: 0.025% surfactant
T4 sequence (P02945 14-261 limits assumed): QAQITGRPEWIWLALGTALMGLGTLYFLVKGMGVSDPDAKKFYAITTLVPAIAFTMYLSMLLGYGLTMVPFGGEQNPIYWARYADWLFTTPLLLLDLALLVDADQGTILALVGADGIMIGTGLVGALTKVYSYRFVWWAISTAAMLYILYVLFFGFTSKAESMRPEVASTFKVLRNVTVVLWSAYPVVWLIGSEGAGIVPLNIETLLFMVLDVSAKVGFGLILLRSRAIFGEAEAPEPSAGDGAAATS
Description: Bacteriorhodopsin (25 μs) was heated with 0.025% Rapigest™ surfactant or the indicated compound of the invention for 5 minutes at 95° C., then digested with chymotrypsin (Sigma) at a 10:1 ratio in 125 μL 50 mM Ammonium bicarbonate for 1 hour at 37° C. After one hour TFA was added to 0.5-2% and the mixtures were incubated at 37° C. or 65° C. for 20 or 30 minutes. Degraded surfactant was removed by centrifugation at 14,000×g for 5 minutes. An aliquot of 50-100 μL of digested protein was analyzed by HPLC as described above.
Compound 3211, 3212, 3224 and Rapigest™ surfactant control for FIG. 13C reactions: Bacteriorhodopsin (25 μs) was solubilized with 0.025% compound of interest for 1-2 minutes at room temperature, then digested with chymotrypsin (Sigma) at a 10:1 ratio in 125 μL 50 mM Ammonium bicarbonate for 1 hour at 37° C. After one hour TFA was added to 0.5-2% and the mixtures were incubated at 37° C. or 65° C. for 20 or 30 minutes. Degraded surfactant was removed by centrifugation at 14,000×g for 5 minutes. An aliquot of 50-100 μL of digested protein was analyzed by HPLC as described above.
as §1

trypsin = trypsin (Sus scrofa, UniProt P00761); assay: Trypsin activity measured as rate of BAEE cleavage; type: biochemical; details: standard digestion conditions
Description: Compound 3116 can be used as an acid-labile surfactant to facilitate the solubilization and denaturation of a protein or peptide. Compound 3116 stabilizes proteases and enhances the proteolysis activity of trypsin. See FIG. 2, which illustrates the effect of compound 3116 on trypsin activity.

[10] = molecular target: T4, Bacteriorhodopsin digested with chymotrypsin; assay: Bacteriorhodopsin/Chymotrypsin digest, HPLC peak area versus RapiGest control; type: biochemical; details: at 0.1% surfactant, BR boiled with surfactant, chymotrypsin 10:1
[11] = surfactant conc. 0.025% in 50 mM ammonium bicarbonate
[12] = surfactant conc. 1% in 50 mM ammonium bicarbonate
[13] = 1 hour in-gel digestion with surfactant
[14] = surfactant conc. 0.0025% in 50 mM ammonium bicarbonate
[15] = BR heated (boiled) with surfactant 5 minutes at 95° C., chymotrypsin 10:1, 1 hour at 37° C., ratio to RapiGest control

T3 sequence (P56480 47-529): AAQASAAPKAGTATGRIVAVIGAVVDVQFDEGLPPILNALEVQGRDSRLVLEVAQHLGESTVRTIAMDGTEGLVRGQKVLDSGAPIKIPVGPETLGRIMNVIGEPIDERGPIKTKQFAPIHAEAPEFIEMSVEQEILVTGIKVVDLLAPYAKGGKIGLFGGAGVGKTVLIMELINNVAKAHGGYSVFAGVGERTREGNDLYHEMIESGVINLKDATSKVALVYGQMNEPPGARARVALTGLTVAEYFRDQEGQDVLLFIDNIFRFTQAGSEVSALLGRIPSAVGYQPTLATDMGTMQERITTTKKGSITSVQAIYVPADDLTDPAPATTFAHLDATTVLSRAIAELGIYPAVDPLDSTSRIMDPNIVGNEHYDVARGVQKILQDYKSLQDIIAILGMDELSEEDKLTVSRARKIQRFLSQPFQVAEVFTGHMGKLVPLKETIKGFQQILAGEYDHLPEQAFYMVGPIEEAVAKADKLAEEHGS
Chain of Horse myoglobin digested with trypsin (P68082 2-154 limits assumed): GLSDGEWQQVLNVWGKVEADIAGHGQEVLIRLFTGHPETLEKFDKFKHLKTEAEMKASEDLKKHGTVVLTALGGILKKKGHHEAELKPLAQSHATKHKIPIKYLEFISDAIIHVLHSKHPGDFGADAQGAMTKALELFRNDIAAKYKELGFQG
T2 sequence (P68082 2-154 limits assumed): as above
Chain of trypsin (P00761 9-231): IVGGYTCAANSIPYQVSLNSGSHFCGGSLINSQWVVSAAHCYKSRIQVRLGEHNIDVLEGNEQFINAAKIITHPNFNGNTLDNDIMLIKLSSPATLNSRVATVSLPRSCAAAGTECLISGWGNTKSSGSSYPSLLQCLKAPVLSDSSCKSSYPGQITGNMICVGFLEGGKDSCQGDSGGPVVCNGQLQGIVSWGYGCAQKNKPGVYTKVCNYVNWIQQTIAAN

Compound	time to degradation in 0.5% TFA ([1]; 37° C. where stated) [min]	deglycosylation of ovalbumin by PNGase F (in words) [2]	solubility (concentration dissolved to) [3] [%]	½-life [4, 11]	½-life [4, 12]	surfactant Pk area/RG Pk area, Myoglobin/Trypsin digest [5]	digestion of myoglobin in one hour (in words) [8]	½-life [4, 14] [h]	surfactant Pk area/RG Pk area, Bacteriorhodopsin/Chymotrypsin digest [9, 15]	solubility in aqueous solutions (concentration dissolved to) [3] [%]	effect on trypsin activity (in words) (trypsin)	further results
CCCCCCCCCCCCC(OC(=O)NCCCS(=O)(=O)O)c1ccc(OC)c(OC)c1 (centres unmarked) [Compound 3266]	≤ 30	rapidly removed carbohydrate from ovalbumin; also recorded: transformed into a deglycosylated 42.9 kD form	2	>>	>>	1.2						thermolability (in words) ([1]; 3266: 5 minutes at 95° C.): not thermolabile; ½-life ([4]; surfactant conc. 0.25% in 50 mM ammonium bicarbonate): >>
CCCCCCCCCCC(OC(=O)NCCCS(=O)(=O)O)c1ccco1 (centres unmarked) [Compound 3211]	15		1	1.1 h	21 h	1.3	complete digestion	0.5				increase in sequence coverage versus protocol without surfactant [6]: 50%; MASCOT score for beta subunit of ATP synthase [6, 13]: 920; sequence coverage for beta subunit of ATP synthase [6, 13]: 75%; intact surfactant remaining ([7]; 0.025% solution at 40° C., after 2 hours): Less than 5%; stability of a 1% solution (10% degradation) ([7]; 1% solution, 4° C.): 12 days; stability of a 1% solution (10% degradation) ([7]; 1% solution, 23° C.): 0.33 days; stability of a 1% solution (10% degradation), estimated ([7]; 1% solution, −20° C.): > 3 years; time to degradation by boiling without TFA ([1]; boiling without TFA): 5 min; degradation at room temperature (in words) ([1]; room temperature): degrades even at room temperature at a substantial rate; surfactant Pk area/RG Pk area, Bacteriorhodopsin/Chymotrypsin digest ([9]; BR solubilized at room temperature (not boiled), RapiGest control boiled): 0.9; ½-life ([4]; 0.025%/20% AcN): 6 h; ½-life ([4]; 0.025%/40% AcN): 52 h; ½-life ([4]; 0.025%/60% AcN): >100 h; ½-life ([4]; 0.025%/80% AcN): >>; ½-life ([4]; 1%/50% AcN): >100 h; ½-life ([4]; surfactant conc. 0.10% in 50 mM ammonium bicarbonate): 4.8 h
CCCCCCCCCCCCCCC(OC(=O)NCCCS(=O)(=O)[O-])c1ccc(OC)cc1.[Na+] (centres unmarked) [Compound 3213]				128 h		0.8		62	1.3	0.025		
CCCCCCCCCCCCOS(=O)(=O)[O-].[Na+] [SDS, sodium dodecyl sulfate, reference compound]		transformed into a deglycosylated 42.9 kD form									inhibited trypsin activity within 30 minutes	
CCCCCCCCCCOc1ccc(C(OCCc2ccc(N(CCCCS(=O)(=O)[O-])CCCCS(=O)(=O)[O-])cc2)(c2ccccc2)c2ccccc2)cc1.[Na+].[Na+] [Compound 3214]										1		surfactant Pk area/RG Pk area, Bacteriorhodopsin/Chymotrypsin digest [10]: 0.6
CCCCCCCCCCCC(C)(C)OC(=O)NCCCS(=O)(=O)O [Compound 3116]						0.6	largely digested within one hour		1.5	≥ 0.5	stabilized trypsin activity	time to degradation of 0.01% solution ([1]; 0.01% solution, 37° C. where stated): ≤ 2 h; identifiable peaks in HPLC chromatogram of myoglobin digest ([8]; 0.01% 3116, trypsin 50:1, one hour at 37° C.): > 15
